Laboratory results taken from patent US20250304620A1, “ANTIMICROBIAL PEPTIDE AND APPLICATION THEREOF” (priority 2023, published 2025).
Converted amounts (≈) assume the structure as drawn. Marks after values point to notes of the source that are not given here. Non-standard residues stand in square brackets, D forms with d. Residues, ends and D or L forms follow the SMILES beside them. d2Nal = N[C@H](Cc1ccc2ccccc2c1)C(=O)O; dNva = CCC[C@@H](N)C(=O)O

What was measured:
[1] = tested on: carbapenem-resistant Escherichia coli (CREC); format: cell-based; details: carbapenem-resistant (CREC)
How it was run: (§1)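 Broth serial twofold dilution per CLSI standards, run 5 times in parallel, gave MIC values for the peptides against clinically common resistant strains.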

[2] = tested on: Methicillin-resistant Staphylococcus aureus (MRSA); format: cell-based; details: Methicillin-resistant
How it was run: as §1

[3] = tested on: carbapenem-resistant Pseudomonas aeruginosa (CRPA); format: cell-based; details: carbapenem-resistant (CRPA)
How it was run: as §1

[4] = tested on: carbapenem-resistant Klebsiella pneumoniae (CRKP); format: cell-based; details: carbapenem-resistant (CRKP)
How it was run: as §1

[5] = tested on: vancomycin-resistant Enterococcus (VRE); format: cell-based
How it was run: as §1

[6] = tested on: Shigella flexneri ATCC 12022; experiment: MIC against clinically common bacterial strain; format: cell-based
How it was run: (§2)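 Susceptibility testing used the CLSI-standard microdilution method with twofold serial dilutions of the antimicrobial peptides to give MIC values, replicated 5 times in parallel.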

[7] = tested on: Candida albicans ATCC MYA-2876; format: cell-based
How it was run: as §2

[8] = tested on: Pseudomonas aeruginosa ATCC 27853; format: cell-based
How it was run: as §2

[9] = tested on: Candida tropicalis ATCC 750; format: cell-based
How it was run: as §2

[10] = tested on: Klebsiella pneumoniae ATCC 700603; format: cell-based
How it was run: as §2

[11] = tested on: Corynebacterium ATCC 7715; format: cell-based
How it was run: as §2

[12] = tested on: Trichophyton ATCC MYA-4438; format: cell-based
How it was run: as §2

Enterococcus ATCC 29212 = format: cell-based
How it was run: as §2

[13] = tested on: Escherichia coli ATCC 25922; format: cell-based
How it was run: as §2

[14] = tested on: Serratia marcescens ATCC 29021; format: cell-based
How it was run: as §2

Candida krusei ATCC 6258 = format: cell-based
How it was run: as §2

[15] = tested on: Staphylococcus aureus (NRS 384); details: NRS 384, 3 h
Method: Trypsin (250 U/mg, pH=8.0) and AMPs (LV-1 to LV-30) were mixed in a ratio of 1:10 (w/w) and added to a reaction buffer (0.2 M sodium phosphate, 1 mM CaCl2), pH 7.5), and then incubated at 37° C. for 3 h.

[16] = tested on: Escherichia coli ATCC 25922; experiment: Oral formulations on mice with systemic bacterial infection; format: in vivo, ICR mice; details: 1 mg/kg gavage, three times a day for 7 days, n = 10
How it was run: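 Survival time and deaths were logged over a 14 d observation after oral gavage dosing (by body weight, thrice daily, 7 days, starting right after infection). Model: mixed-sex ICR mice, n=10 per group, intraperitoneal injection of E. coli ATCC 25922 suspension (0.2 mL, 1×10^7 CFU/mL).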

[17] = tested on: Pseudomonas aeruginosa ATCC 27853; experiment: Injectable formulations on mice infected with peritonitis; format: in vivo, ICR mice; details: 1 mg/kg via tail vein, twice a day for 3 days, n = 10
How it was run: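 Survival readout: deaths and survival time tracked for 14 d. Treatment was tail-vein injection by body weight, twice a day for 3 consecutive days, starting right after intraperitoneal challenge with 0.2 mL of 1×10^9 CFU/mL P. aeruginosa ATCC 27853 in male and female ICR mice.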

## CCC[C@@H](NC(=O)[C@@H](CCCCN)NC(=O)[C@@H](CCCNC(=N)N)NC(C)=O)C(=O)N[C@H](CCC)C(=O)N[C@H](Cc1ccc2ccccc2c1)C(=O)N[C@H](CCCNC(=N)N)C(=O)N[C@H](CCC)C(=O)N[C@H](CCCCN)C(=O)N[C@H](Cc1ccc2ccccc2c1)C(=O)N[C@H](CCCNC(=N)N)C(=O)N[C@H](CCCCN)C(N)=O [LV-13] (Ac-[dR][dK][dNva][dNva][d2Nal][dR][dNva][dK][d2Nal][dR][dK]-NH2)
[1]
  MIC CREC: 4 µg/mL (≈ 2.49 µM)
[2]
  MIC MRSA: 2 µg/mL (≈ 1.25 µM)
[3]
  MIC CRPA: 2 µg/mL (≈ 1.25 µM)
[4]
  MIC CRKP: 2 µg/mL (≈ 1.25 µM)
[5]
  MIC VRE: 4 µg/mL (≈ 2.49 µM)
[6]
  MIC Shigella flexneri ATCC 12022: 8 µg/mL (≈ 4.99 µM)
[7]
  MIC Candida albicans ATCC MYA-2876: 16 µg/mL (≈ 9.97 µM)
[8]
  MIC Pseudomonas aeruginosa ATCC 27853: 4 µg/mL (≈ 2.49 µM)
[9]
  MIC Candida tropicalis ATCC 750: 4 µg/mL (≈ 2.49 µM)
[10]
  MIC Klebsiella pneumoniae ATCC 700603: 4 µg/mL (≈ 2.49 µM)
[11]
  MIC Corynebacterium ATCC 7715: 4 µg/mL (≈ 2.49 µM)
[12]
  MIC Trichophyton ATCC MYA-4438: 4 µg/mL (≈ 2.49 µM)
Enterococcus ATCC 29212
  MIC Enterococcus ATCC 29212: 8 µg/mL (≈ 4.99 µM)
[13]
  MIC Escherichia coli ATCC 25922: 2 µg/mL (≈ 1.25 µM)
[14]
  MIC Serratia marcescens ATCC 29021: 4 µg/mL (≈ 2.49 µM)
Candida krusei ATCC 6258
  MIC Candida krusei ATCC 6258: 4 µg/mL (≈ 2.49 µM)
[15]
  Trypsin MIC: 1 µg/mL
[16]
  Number of mice that died on each day after infection: day 4: 3 Mouse
  Number of mice that died on each day after infection: day 5: 1 Mouse
  Number of mice that died on each day after infection: day 6: 1 Mouse
  Number of mice that died on each day after infection: day 7: 0 Mouse
  Number of mice that died on each day after infection: day 8: 0 Mouse
[16]; observed for 14 d
  Average survival times (Days): 9.3** Days
[17]
  Number of mice that died on each day after infection: day 1: 3 Mouse
  Number of mice that died on each day after infection: day 2: 1 Mouse
  Number of mice that died on each day after infection: day 3: 0 Mouse
  Number of mice that died on each day after infection: day 4: 1 Mouse
  Number of mice that died on each day after infection: day 5: 0 Mouse
[17]; observed for 14 d
  Average survival times (Days): 7.9** Days
